According to article PMC4538566 (Journal of Medicinal Chemistry, 2015):

Columns and labels:
Caco-2 monolayers = experiment: Caco-2 cell monolayers transport assay; format: in vitro ADME; settings: Caco-2 monolayers, 20 μM, three independent experiments
prostate DU-145 = format: cell-based, human; settings: read-out: IC50 DU-145; 24 h incubation, MTT, mean ± SD (n = 4)
lung A549 = format: cell-based, human; settings: read-out: IC50 A549; 24 h incubation, MTT, mean ± SD (n = 4)
plasmid (pBR322) DNA = experiment: Electrophoresis mobility shift assay with plasmid DNA; format: binding; settings: 37 °C, 20 h, metal/DNAbp ratios 0.25–2.0
[1] = system: non-tumorigenic human embryonic kidney cells HEK293T; format: cell-based; settings: read-out: IC50 HEK-293T; 24 h incubation, MTT, mean ± SD (n = 4)
leukemia Jurkat-T = format: cell-based, human; settings: read-out: IC50 Jurkat; 24 h incubation, MTT, mean ± SD (n = 4)
pancreas MiaPaca2 = format: cell-based, human; settings: read-out: IC50 MiaPaca2; 24 h incubation, MTT, mean ± SD (n = 4)
[2] = system: triple-negative breast MDA-MB-231; format: cell-based, human; settings: read-out: IC50 MDA-MB-231; 24 h incubation, MTT, mean ± SD (n = 4)
In situ rat perfusion = format: in vivo; settings: 100 μM; for Ka1 absorption rate coefficient: six independent experiments
[3] = Caco-2 cell monolayers transport assay; format: in vitro ADME; settings: human, Caco-2

**Q.** For Lucifer Yellow, which Peff (Caco-2 monolayers) is on record?
**A.** 1.90 × 10^–7 cm/s

**Q.** Which results are given for `N.N.[Cl][Pt][Cl]` [cisplatin]?
**A.** IC50 (prostate DU-145): 112 ± 33 µM; IC50 (lung A549): 114 ± 9.1 µM; effect on electrophoretic mobility of plasmid forms (plasmid (pBR322) DNA): able to both increase and decrease the mobility of the OC and the CCC forms; IC50 [1]: 69 ± 6.7 µM; IC50 (leukemia Jurkat-T): 10.8 ± 1.2 µM; IC50 (pancreas MiaPaca2): 76.5 ± 7.4 µM; IC50 [2]: 131 ± 18 µM

**Q.** With `COCCc1ccc(OCC(O)CNC(C)C)cc1` (stereo not drawn) [metoprolol] as the molecule, how does the Peff (In situ rat perfusion) read?
**A.** 5.40 × 10^–5 cm/s

**Q.** And the “Ka1 absorption rate coefficient” value (In situ rat perfusion)?
**A.** 2.30 h^–1

**Q.** And the Papp at 90 min, 20 μM [3]?
**A.** 23.2 ×10⁻⁶ cm/s

**Q.** For `CC(C)NCC(O)COc1ccc(CC(N)=O)cc1` (stereo not drawn) [atenolol], which Peff (In situ rat perfusion) is on record?
**A.** 5.19 × 10^–6 cm/s

**Q.** For `CN/C(=N/CCSCc1nc[nH]c1C)NC#N` [cimetidine], which Peff (In situ rat perfusion) is on record?
**A.** 3.97 × 10^–5 cm/s

**Q.** What about the “Ka1 absorption rate coefficient” value (In situ rat perfusion) of the same molecule?
**A.** 1.68 h^–1

**Q.** And the Papp at 90 min, 20 μM [3]?
**A.** 1.86 ×10⁻⁶ cm/s
